# Assay results taken from US11007178B2, “Methods and uses of Nampt activators for treatment of diabetes, cardiovascular diseases, and symptoms thereof” (University of South Florida, priority 2016, dated 2021).
# Legend:
# [1] = system: pancreatic islet β-cells of diabetic mice; experiment: Pancreatic islets and beta cells, Gomori staining; type: in vivo; conditions: 10 mg/Kg daily, 4 weeks, vs vehicle
# Procedure: Additionally diabetic mice were treated with P7C3 for 4 weeks with daily dose of 10 mg/Kg with P7C3 or vehicle. Thereafter, the pancreas was collected at necropsy and cryosectioned, the cross sections were stained for visualizing the damage of β-cells in diabetes and rescue by P7C3. […] P<0.01. ** indicates […] between Vehicle and P7C3 groups and *** indicates P<0.001 Vehicle and P7C3 groups as determined by a one-way ANOVA followed by Tukey test.
# [2] = system: pancreatic islet β-cells of diabetic mice; experiment: Immunohistochemical staining for insulin in pancreatic beta-islets; type: in vivo; conditions: vs vehicle
# [3] = system: H9C2 cardiomyoblasts; experiment: NAD levels in H9C2 cardiomyoblasts; type: cell-based; conditions: H9C2, 10 μM, vs vehicle (1% DMSO) or FK866 (10 nM)
# Source text: Nampt, a rate-limiting enzyme, controls the level of NAD+ and protects the heart by stimulating SIRT1. […] The data presented in this Example coupled with previous evidence of the ability of P7C3 to bind and activate Nampt unequivocally indicate that the rescue of arrythmogenic and myopathy changes noted in P7C3 treated db/db mice are in due to activation of Nampt activation, NAD elevation, and stimulation of Nampt-SIRT1 axis.
# [4] = system: db/db mice; experiment: NADH/NAD ratio in diabetic model; type: in vivo; conditions: 4 weeks treatment, vs vehicle
# [5] = system: db/db mice; experiment: Blood sugar level in diabetic mouse model over 4 weeks; type: in vivo; conditions: 10 mg/kg i.p. daily
# Procedure: (§1) To determine the effect of the Nampt activator on blood sugar control and cardiac electrical activity in diabetics, we examined the effects of P7C3,in a diabetic mouse model (db/db mice). Briefly, wild-type or db/db mice were treated with a Nampt activator (P7C3) or control. The Nampt activator or control was administered daily via intraperitoneal (i.p.) injection at about 10 mg/kg.
# [6] = system: diabetic hearts (db/db); experiment: Langendorff myocardial ischemia-reperfusion injury, diabetic hearts; design: species or system mice; conditions: 4 week treated diabetic hearts, 45 min ischemia, 60 min reperfusion, vs vehicle
# [7] = system: db/db mice; experiment: Intra-peritoneal glucose tolerance test (IPGTT); type: in vivo; conditions: 10 mg/kg, 4 weeks, vs vehicle
# Procedure: The diabetic model was treated with a vehicle or P7C3 for 4 weeks. Then a glucose tolerance test was conducted.
# as §1
# An insulin tolerance test was also performed after 4 weeks of Nampt activator treatment as previously described.
# [8] = system: db/db mice; experiment: Echocardiography, cardiomyopathy and cardiac performance; type: in vivo
# Source text: A similar increase (p<0.05) in pulmonary VTI was also noted in the 20 week db/db mice when compared with WT controls. […] A similar increase in M-mode short axis measurements in 20 week db/db was also noted in left ventricular internal dimension (LVID) at both systole and diastole. […] This increase in LVID is indicative of increased heart size when compared with Wt controls.
# [9] = system: wild-type C57 hearts; experiment: Langendorff myocardial ischemia-reperfusion injury, wild-type hearts; design: species or system mouse; conditions: 10 μM, 45 min ischemia, 60 min reperfusion, vs vehicle
# Procedure: Following a 45 minutes of ischemia in the wild type mouse hearts we utilized P7C3 and allowed reperfusion for first 30 minutes of reperfusion period during a 60 minutes reperfusion phase. […] Red portion of the stain in FIGS. 12A and 12C can indicate viable tissue, where as white or pale colored areas are infarcted areas. Qualification for the infract size is depicted in the accompanying bar graphs in each panel. ***p<0.0001, **p<0.001, vehicle vs. P7C3 in each group.
# [10] = system: diabetic mice; experiment: Insulin tolerance test (ITT); type: in vivo; conditions: about 10 mg/Kg daily, 4 weeks, insulin 5 U/Kg i.v.
# Procedure: Diabetic mice were utilized and treated with P7C3 for 4 weeks with a daily dose of about 10 mg/Kg P7C3 or vehicle. Thereafter, ITT (insulin tolerance test) was performed by injecting insulin 5 U/Kg body weight i.v. Blood glucose levels were monitored as shown in FIGS. 9A-9B.
# [11] = system: db/db mice; experiment: ECG, cardiac electrical abnormalities; type: in vivo; conditions: 20 week old, vs vehicle treated db/db
# Procedure: as §1
# [12] = system: db/db mice; experiment: Serum insulin levels by ELISA; type: in vivo; conditions: diabetic mice, about 10 mg/kg i.p., 4 weeks, vs vehicle
# Procedure: A Nampt activator, P7C3, was administered and various effects were evaluated. […] Briefly, the dose of P7C3 was about 10 mg/kg and administered i.p. to diabetic mice and the effect on serum insulin, insulin tolerance, blood glucose, and pancreatic beta cell number and insulin granulation in the islets of a diabetic model pancreas. The serum from P7C3 or vehicle treated diabetic mice and measured the insulin levels by ELISA assay.
# [13] = system: Wt mouse heart; experiment: Ex vivo lactate perfusion of heart, ventricular arrhythmia; conditions: 2 out of 5 mice, control 0%
# Source text: Cardiac elevation of NADH through ex vivo lactate perfusion of Wt mouse heart increases the incidence of ventricular arrhythmia by 40% (2 out of 5 mice) (FIGS. 5A and 5B).
# [14] = diabetic mice, 4 week treatment
compound,measurement,setting,value
OC(CNc1ccccc1)Cn1c2ccc(Br)cc2c2cc(Br)ccc21 (stereo not shown) [P7C3],beta cells per section,[1],significant improvement
same,number of beta cells per islet,[1],improved
same,number of pancreatic islets in a unit area of the pancreas,[1],improved
same,insulin positive beta-cells per islet area,[2],increased insulin production
same,NAD levels,[3],significantly (P<0.01) increases
same,NADH/NAD ratio,[4],significantly attenuated
same,net reduction in blood sugar levels,[5],173.2 mg/dL
same,blood sugar level,"[5]; at 4 weeks, vehicle db/db 467.5±34.2, wild type 209.8±6.1",214.5 ± 16.9 mg/dL
same,protection from myocardial ischemia-reperfusion injury (infarct size),[6],cardioprotective effect
same,glucose tolerance after 2 hour glucose load,[7],increased glucose tolerance
same,insulin release after glucose load,[7],significantly (P<0.001) increased
same,cardiomyopathy,[8]; 4 week treatment,partial rescue
same,IVRT (isovolumic relaxation time),[8]; P7C3 treated diabetic mice,improvement in cardiac performance
same,MPI (myocardial performance index),[8]; P7C3 treated diabetic mice,improvement in cardiac performance
same,LV mass,[8]; db/db mice,smaller increase
same,aortic VTI,"[8]; db/db mice, 4-week treatment",much less of an increase
same,pulmonary VTI,"[8]; db/db mice, 4-week treatment",much less of an increase
same,left ventricular internal dimension (LVID),"[8]; db/db mice, particularly at the diastole",much less increase
same,% ejection fraction,[8]; [14],significantly (p<0.05) decreased
same,% fractional shortening,[8]; [14],significantly (p<0.05) decreased
same,protection from myocardial ischemia-reperfusion injury (infarct size),[9],cardioprotective effect
same,"insulin sensitivity (insulin tolerance test, blood glucose)",[10],improved insulin sensitivity
same,QRS interval,[11],significantly reduced (p<0.001) back to Wt levels
same,QT interval,[11],significantly reduced (p<0.001) back to Wt levels
same,QTc interval,[11],significantly reduced (p<0.001) back to Wt levels
same,serum insulin levels,[12],increased
lactate,incidence of ventricular arrhythmia,[13],40%
"NC(=O)c1ccc[n+]([C@@H]2O[C@H](COP(=O)([O-])O)[C@@H](O)[C@H]2O)c1 [NMN, nicotinamide mononucleotide, reference compound]",NAD levels,[3],significantly (P<0.01) increases
